Activity calls are given as the source filed them.
What was measured:
[1] = tested on: Mus musculus; assay: Anticonvulsant activity in maximal electroshock induced seizure mouse model assessed as reduction in convulsions at 100 mg/kg, po; type: functional, organism-based
[2] = tested on: Mus musculus; assay: Anticonvulsant activity in subcutaneous pentylenetetrazole-induced seizure mouse model assessed as reduction in convulsions at 100 mg/kg, po; type: functional, organism-based
[3] = tested on: Mus musculus; assay: Anticonvulsant activity in maximal electroshock induced seizure mouse model assessed as reduction in convulsions at 50 mg/kg, po; type: functional, organism-based
[4] = Stability in rat hepatic microsomes assessed as parent compound remaining after 30 mins in presence of NADPH; type: ADME, Microsome; conditions: liver microsomes, read-out: Stability
[5] = Stability in human hepatic microsomes assessed as parent compound remaining after 30 mins in presence of NADPH; type: ADME, Microsome; conditions: liver microsomes, read-out: Stability
[6] = tested on: Rattus norvegicus; assay: Anticonvulsant activity in amygdala kindling rat model assessed as change in after discharge threshold at 50 mg/kg, po relative to control; type: functional
[7] = tested on: Rattus norvegicus; assay: Anticonvulsant activity in amygdala kindling rat model assessed as change in after discharge threshold at 100 mg/kg, po relative to control; type: functional
[8] = tested on: Rattus norvegicus; assay: Anticonvulsant activity in amygdala kindling rat model assessed as change in after discharge duration at 50 mg/kg, po (reference value: -5.5%); type: functional
[9] = tested on: Rattus norvegicus; assay: Anticonvulsant activity in amygdala kindling rat model assessed as change in after discharge duration at 100 mg/kg, po (reference value: -5.5%); type: functional
[10] = tested on: Mus musculus; assay: Anticonvulsant activity in po dosed maximal electroshock induced seizure mouse model assessed as reduction in convulsions; type: functional
[11] = tested on: Mus musculus; assay: Anticonvulsant activity in po dosed subcutaneous pentylenetetrazole-induced seizure mouse model assessed as reduction in convulsions; type: functional
[12] = tested on: Mus musculus; assay: Anticonvulsant activity in po dosed 6-Hz induced seizure mouse model; type: functional
[13] = Neurotoxicity in po dosed mouse by rotarod test; type: toxicity, organism-based; conditions: in vivo
[14] = Therapeutic index, ratio of TD50 for neurotoxicity in po dosed mouse to ED50 for po dosed maximal electroshock induced seizure mouse model; type: toxicity, organism-based; conditions: in vivo, read-out: Ratio TD50/ED50
[15] = Therapeutic index, ratio of TD50 for neurotoxicity in po dosed mouse to ED50 for po dosed 6-Hz induced seizure mouse model; type: toxicity, organism-based; conditions: in vivo, read-out: Ratio TD50/ED50
[16] = biological target: T1, GABA-A receptor; anion channel (Rattus norvegicus) (UniProt O09028+P15431+P18506+P18508+P19969+P20236+P23574+P23576+P28471+P28473+P30191+P62813+P63079+P63138+Q91ZM7+Q9ES14); assay: Displacement of [3H]flunitrazepam from GABAA receptor in Sprague-Dawley rat cerebral cortex at 30 uM after 60 mins by scintillation counting method
[17] = biological target: T1, GABA-A receptor; anion channel (Rattus norvegicus); assay: Displacement of […] from GABAA receptor in Sprague-Dawley rat cerebral cortex at 30 uM by scintillation counting method
[18] = biological target: T2, GABA-A receptor; anion channel (Homo sapiens) (UniProt P14867+P47870+P18507+P28472+P48169+Q99928+Q9UN88+P34903+O00591+O14764+Q8N1C3+P18505+P78334+P47869+P31644+Q16445); assay: Displacement of [3H]muscimol from GABAA receptor (unknown origin) at 30 uM; type: protein-complex assay
[19] = biological target: T2, GABA-A receptor; anion channel (Homo sapiens); assay: Displacement of [3H]Ro15-1788 from GABAA receptor (unknown origin) at 30 uM; type: protein-complex assay
[20] = biological target: T2, GABA-A receptor; anion channel (Homo sapiens); assay: Displacement of [3H]TBOB from GABAA receptor (unknown origin) at 30 uM; type: protein-complex assay
[21] = tested on: Mus musculus; assay: Anticonvulsant activity in maximal electroshock induced seizure mouse model assessed as reduction in convulsions at 25 mg/kg, po; type: functional, organism-based
[22] = tested on: Mus musculus; assay: Anticonvulsant activity in subcutaneous pentylenetetrazole-induced seizure mouse model assessed as reduction in convulsions at 25 mg/kg, po; type: functional, organism-based
[23] = tested on: Mus musculus; assay: Anticonvulsant activity in subcutaneous pentylenetetrazole-induced seizure mouse model assessed as reduction in convulsions at 50 mg/kg, po; type: functional, organism-based
[24] = tested on: Rattus norvegicus; assay: Anticonvulsant activity in amygdala kindling rat model assessed as change in after discharge threshold at 300 mg/kg, po relative to control; type: functional
[25] = tested on: Rattus norvegicus; assay: Anticonvulsant activity in amygdala kindling rat model assessed as change in after discharge threshold at 600 mg/kg, po relative to control; type: functional
[26] = tested on: Rattus norvegicus; assay: Anticonvulsant activity in amygdala kindling rat model assessed as change in after discharge duration at 300 mg/kg, po (reference value: -5.5%); type: functional
[27] = tested on: Rattus norvegicus; assay: Anticonvulsant activity in amygdala kindling rat model assessed as change in after discharge duration at 600 mg/kg, po (reference value: -5.5%); type: functional

Compound | Activity [1] | Activity [2] | Activity [3] | other results
NC(=O)Cc1cnccc1-c1ccccc1F | inactive | inactive | – | –
O=C1CCCN1c1ccccc1-c1ccccc1F | Active | inactive | – | –
NC(=O)Cc1ccccc1-c1ccccc1F | Active | – | Active | remaining at 0.5 h [4]: > 95%; remaining at 0.5 h [5]: > 95%; Activity [6]: 75.9%; Activity [7]: 80.1%; Activity [8]: -22.9%; Activity [9]: -22.9%; ED50 [10]: 27 mg/kg; ED50 [11]: 27 mg/kg; ED50 [12]: 56 mg/kg; TD50 [13]: 129 mg/kg; selectivity ratio [14]: 4.8; selectivity ratio [15]: 2.3; inhibition [16]: inactive; inhibition [17]: inactive; inhibition [18]: inactive; inhibition [19]: inactive; inhibition [20]: inactive
NC(=O)Cc1ccccc1-c1ccc(F)cc1F | Active | – | – | –
O=C(O)Cc1ccccc1-c1ccccc1F | inactive | inactive | – | –
N#Cc1ccccc1-c1ccccc1CC(N)=O | – | inactive | – | –
NC(=O)Cc1ccccc1-c1cc(F)ccc1F | Active | Active | Active | Activity [21]: inactive; Activity [22]: inactive
NC(=O)Cc1ccccc1-c1ccccc1C(F)(F)F | Active | – | inactive | Activity [23]: inactive
CNS(=O)(=O)c1ccccc1-c1ccccc1F | Active | Active | Active | Activity [21]: Active; Activity [23]: Active
COc1ccccc1-c1ccccc1CC(N)=O | – | – | inactive | –
NC(=O)Cc1ccccc1-c1c(F)cccc1F | Active | Active | Active | Activity [21]: Active; Activity [22]: inactive
NC(=O)Cc1ccccc1-c1ccccc1Cl | Active | Active | Active | Activity [23]: Active; Activity [22]: inactive
NC(=O)c1ccccc1-c1ccccc1F | Active | – | Active | Activity [21]: Active
NC(=O)Cc1c(F)cccc1-c1ccccc1F | Active | – | Active | –
NC(=O)Cc1cccc(F)c1-c1ccccc1F | Active | – | Active | Activity [22]: inactive
NC(=O)Cc1cc(F)ccc1-c1ccccc1F | Active | Active | – | Activity [21]: inactive; Activity [22]: inactive
NC(=O)Cc1cccnc1-c1ccccc1F | inactive | – | – | –
NC(=O)Cc1ccccc1-c1ccncc1F | inactive | – | – | –
O=C1NC(=O)C(c2ccccc2-c2ccccc2F)N1 (centres undefined) | Active | inactive | – | –
NC(=O)Cc1ccc(F)cc1-c1ccccc1F | Active | – | Active | Activity [21]: inactive
CCCC(CCC)C(=O)[O-].[Na+] [VALPROATE SODIUM] | – | – | – | Activity [24]: -5.4%; Activity [25]: 81.3%; Activity [26]: 11.1%; Activity [27]: -22.5%; ED50 [10]: 309 mg/kg; ED50 [11]: 336 mg/kg; ED50 [12]: 343 mg/kg; TD50 [13]: 396 mg/kg
NC(=O)Cc1ncccc1-c1ccccc1F | Active | – | – | –
